As usually defined, the pEC50 is −log10 of the EC50, conventionally taken in molar units. For orientation: pIC50 means −log10 of the IC50, conventionally taken in molar units.

pEC50, pIC50: −log10 of the molar value. Several values for one entry are separate records, joined by “and”; a condition that tells them apart may be missing. Equal entries are not always repeated. Activity calls are given as the source filed them.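 Rule for the calls: active = compounds giving half or more protection of infected cells from virus-caused growth loss, again on retest; inactive = the rest.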 Where a SMILES comes first, the peptide text is derived from it. The star is where a group is joined. Boc = CC(C)(C)OC(=O)*; OBn = c1ccc(CO*)cc1; Bn = c1ccc(C*)cc1

We go through 71 compounds from PubChem BioAssay AID179 (DTP/NCI, 2004).

The subject of this test is CEM cells HIV-1 protection, formazan growth assay. Put plainly: NCI AIDS Antiviral Assay. The conditions noted are these: for pIC50: measured here: growth of uninfected CEM cells. In a few lines:
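CEM (human) cells, HIV-1 infected vs uninfected, 5-point dosing, formazan growth read-out. Retest threshold 50% protection.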

As for `Cc1c(C)n(COCCO)c2ncnc(N)c12`, the pEC50 was below 3.70 and the pIC50 is below 3.70.

On to `Cc1cnc2sn(-c3ccc(Br)cc3)c(=O)c2c1`, for which the pEC50 is below 3.70 and the pIC50 is 4.94.

As for `CCN(CC)c1c([N+](=O)[O-])c(=O)nc2ccccn12`, the pEC50 was below 3.70 and the negative-log IC50 (pIC50) was 3.98.

Consider `O=C1[C@@H]2C(c3ccc(Br)cc3)=NO[C@@H]2C(=O)N1c1ccc(Cc2ccc(N3C(=O)[C@H]4C(c5ccc(Br)cc5)=NO[C@H]4C3=O)cc2)cc1`, for which the pEC50 is below 5.02 and the pIC50 was below 5.02.

Turning to `CCOC(=O)/C(C1=NCCN1)=C(\O)c1ccccc1`, the pEC50 is 3.33 and the pIC50 was 3.04.

On to `c1ccc([P+](CCOCC[P+](c2ccccc2)(c2ccccc2)c2ccccc2)(c2ccccc2)c2ccccc2)cc1`, for which the pEC50 is below 3.70 and the pIC50 is 4.31.

Consider `CC1=C2C(=O)NN=C2CCN1c1ccc(Br)cc1`, for which the pEC50 was below 3.70 and the pIC50 was 4.46.

As for `CC12O[C@H](c3ccccc3)[C@H](c3ccccc3)N1C(=O)C1(C(=O)OCc3ccccc3)CC12` (stereo partly drawn), the pEC50 was below 4.64 and the pIC50 is below 4.64.

Regarding `CCOC(=O)/C(=C/c1ccc(C(=O)OC)cc1)N(CC)CC`, the pEC50 was below 3.37 and the negative logarithm of the IC50 (pIC50) was 4.17.

With `COC(C/C(=C/CO[Si](C(C)C)(C(C)C)C(C)C)C(=O)N(C(=O)OC(C)(C)C)c1ccccc1I)OC`, the pEC50 was below 3.70 and the pIC50 is 4.11.

For `O=C(NCCCN1CCN(CCCNC(=O)c2cc(-c3ccccc3)nc3ccccc23)CC1)c1cc(-c2ccccc2)nc2ccccc12`, the pEC50 is below 4.70 and the negative logarithm of the IC50 (pIC50) was 5.62.

Take `CN(/N=C/c1ccccn1)C1=NCCN1`: the pEC50 is below 3.70 and the pIC50 was below 3.70.

In the case of `CC[C@]12C=CCN3CCC4(c5cc([C@]6(C(=O)OC)C[C@H]7CN(CCc8c6[nH]c6ccccc86)CC6CCCCC67)c(OC)cc5N(C)C4[C@@](O)(C(=O)OC)C1OC(C)=O)[C@@H]32` (stereo partly drawn), the pEC50 is below 4.05 and the pIC50 was 5.77.

Consider `COc1cc(Cc2nnc(N)nc2N)cc(OC)c1OC`, for which the pEC50 is below 4.75 and the negative-log IC50 (pIC50) was below 4.75.

`COc1ccc(C2C3CCCC(C3=O)C(c3ccc(OC)cc3)N2N=O)cc1` (stereo not drawn): the pEC50 is below 4.72 and the negative-log IC50 (pIC50) is below 4.72.

Consider `Cn1cnc([N+](=O)[O-])c1Sc1n[nH]c(-c2ccc(Cl)cc2)n1`, for which the pEC50 was below 3.97 and the pIC50 is 5.17.

On to `C/C(=N/NC(=O)CC(=O)N(C(=O)c1ccccc1Cl)c1ccc(C)cc1)c1cc2ccccc2oc1=O`, for which the pEC50 was below 5.00 and the pIC50 was below 5.00.

As for `Fc1cccc2c1[nH]c1c2ncc2[nH]c3ccccc3c21`, the pEC50 is below 4.70 and the negative logarithm of the IC50 (pIC50) is 5.16.

Regarding `C=C1C2=C(CCCC2)C(=O)OC12CCCCC2`, the pEC50 was below 4.00 and the pIC50 is below 4.00.

In the case of `CCOC(=O)C(C)S(=O)(=O)O` (stereo not drawn), the pEC50 is below 3.70 and the pIC50 was below 3.70.

`CCC(F)(C(N)=O)C(=O)O` (stereo not drawn): the pEC50 is below 3.70 and the pIC50 is below 3.70.

On to `O=Nc1ccc(O)c(Cl)c1`, for which the pEC50 is below 3.70 and the negative-log IC50 (pIC50) is 4.88.

For the compound `COc1ccc(N=C2C(=Nc3ccc(OC)cc3)N(S(=O)(=O)c3ccccc3)C(=S)N2c2ccc(OC)cc2)cc1`, the pEC50 is below 3.70 and the pIC50 was below 3.70.

For `Cc1cc2nc(N)n[n+]([O-])c2cc1C`, the pEC50 is below 3.70 and the negative logarithm of the IC50 (pIC50) is below 3.70.

For `O=c1c2c3c(sc2nc(CN2CCNCC2)n1-c1ccccc1)CCCC3`, the pEC50 is below 4.00 and the pIC50 is below 4.00.

Take `O=C(C(Cl)=C(N1CCCCC1)N1CCCCC1)C(Cl)Cl`: the pEC50 was below 3.70 and the negative logarithm of the IC50 (pIC50) was 3.76.

Consider `Fc1ccc(C2SCc3nc4ccccc4n32)cc1Cl` (stereo not drawn), for which the pEC50 is below 4.14 and the pIC50 is 4.59.

As to `COc1cc2[nH]c(=O)[nH]c2c2c(C)c[nH]c12`, the pEC50 was below 3.70 and the negative logarithm of the IC50 (pIC50) was below 3.70.

On to `CCn1c2ccccc2c2cc(N=Nc3ccc(C#N)cc3)ccc21`, for which the pEC50 is 4.97 and the pIC50 is below 3.70.

On to `CC(NC(=O)CNC(=O)OC(C)(C)C)C(=O)NC(Cc1ccccc1)C(=O)OCc1ccccc1` (stereo not drawn) (Boc-Gly-Ala-Phe-OBn; configuration not given here), for which the pEC50 was below 3.70 and the pIC50 was 4.11.

Turning to `COC(=O)C(CC(C)C)NC(=O)C(C)NC(=O)C(Cc1ccc(OCc2ccccc2)cc1)NC(=O)C(COCc1ccccc1)NC(=O)OC(C)(C)C` (stereo not drawn) (Boc-S(Bn)Y(Bn)AL-OMe; configuration not given here), the pEC50 was below 3.70 and the negative-log IC50 (pIC50) was 4.08.

In the case of `Nc1ncnc2c1ncn2C1C=CC(CP(=O)(O)O)C1` (stereo not drawn), the pEC50 was below 3.70 and the negative logarithm of the IC50 (pIC50) was below 3.70.

On to `O=[N+]([O-])c1ccc(N=Nc2c(NNc3ccc([N+](=O)[O-])cn3)cc(S(=O)(=O)O)c3ccccc23)nc1`, for which the result was inactive.

Regarding `CC1(C)COC(c2cccc(C3=NC(C)(C)CO3)c2Br)=N1`, the pEC50 was below 3.70 and the negative-log IC50 (pIC50) is 3.82.

Consider `Clc1ccc(CN2COc3c(ccc4cccnc34)C2)c(Cl)c1`, for which the pEC50 was below 3.70 and the pIC50 was 5.84.

Turning to `CN(C)c1ccc(/C=C/C(=O)[O-])cc1.CN(C)c1ccc(/C=C/C(=O)[O-])cc1.[Cu+2]`, the pEC50 is below 5.07 and the negative-log IC50 (pIC50) is below 5.07.

Turning to `O=c1nc(-c2ccccc2)cc(CC(O)c2ccc(Cl)c(Cl)c2)[nH]1` (stereo not drawn), the pEC50 was below 4.70 and the pIC50 was below 4.70.

For `CCN1CCC(O)(/C=C/c2ccc(OC)cc2)C(C(=O)/C=C/c2ccc(OC)cc2)C1` (stereo not drawn), the pEC50 was below 3.32 and the negative logarithm of the IC50 (pIC50) was below 3.32.

Consider `Cn1c2c(c3nc(N)nc(N)c3c1=O)CCc1ccccc1-2`, for which the pEC50 is below 3.70 and the negative-log IC50 (pIC50) is 4.89.

For the compound `O=c1ncc2[nH]c(=S)[nH]c2[nH]1`, the pEC50 is below 3.70 and the pIC50 was below 3.70.

`Cc1nn(-c2cc(Cl)ccc2[N+](=O)[O-])c(C)c1Cl`: the pEC50 was below 3.70 and the pIC50 is 3.78.

As to `COc1cc(OC)c(/C=C/c2ccncn2)c(OC)c1`, the pEC50 is below 3.74 and the pIC50 was 4.03.

`CCC[CH2][Sn]([CH2]CCC)([O]C(=O)c1cccc(F)c1F)[O]C(=O)c1cccc(F)c1F`: the pEC50 is below 5.02 and the pIC50 was 5.45.

On to `CCCCCC=C(c1cc(Br)cc(C(=O)O)c1OC)c1cc(Br)cc(C(=O)O)c1OC`, for which the pEC50 is below 3.77 and the pIC50 is 3.78.

Consider `Cc1ccc(/C=C2\CN(C)CC3=C2NC(=S)NC3c2ccc(C)cc2)cc1` (stereo not drawn), for which the pEC50 was below 3.70 and the pIC50 was 4.60.

Regarding `CCN(CC)C(=S)SS(=O)(=O)c1ccc(Cl)cc1`, the pEC50 was below 3.70 and the negative logarithm of the IC50 (pIC50) was 4.92.

Take `Cc1cn(COCCOS(C)(=O)=O)c(=O)[nH]c1=O`: the pEC50 was below 3.70 and the pIC50 is below 3.70.

For the compound `O=c1c2cc(-c3ccccc3)cnc2sn1-c1ccc(Br)cc1`, the negative logarithm of the EC50 (pEC50) was 3.96 and the pIC50 is 3.73.

For the compound `Cn1c(=O)nc2n(-c3cccc(Cl)c3)c3ccccc3nc-2c1=O`, the result was inactive.

Regarding `CCOCCN(CCOCC)C(=O)c1ccc2c(c1)no[n+]2[O-]`, the pEC50 is below 3.70 and the negative logarithm of the IC50 (pIC50) is 3.87.

Regarding `CCCCCCOc1ccc(C(=O)NOCc2ccccc2)cc1`, the pEC50 is below 3.70 and the negative-log IC50 (pIC50) was 4.18.

Turning to `O=C1CCC2(c3ccc(Cl)cc3)Nc3cc([N+](=O)[O-])ccc3N12` (stereo not drawn), the pEC50 is below 4.66 and the pIC50 was below 4.66.

As to `Cc1ncc(CO)c(CO)c1OCC(O)CN1CCN(c2ccc(F)cc2)CC1` (stereo not drawn), the pEC50 is below 3.70 and the negative-log IC50 (pIC50) is 4.01.

Regarding `O=[N+]([O-])Cc1cnc2nncn2n1`, the outcome was inactive.

`O=C(CC1(O)C(=O)Nc2ccc([N+](=O)[O-])cc21)c1ccc(Br)cc1` (stereo not drawn): the pEC50 is below 4.38 and the negative-log IC50 (pIC50) was below 4.38.

Take `COC(=O)C1=CN=C(C(=O)OC)NN1`: the pEC50 is below 2.90 and the pIC50 was 3.27.

Take `COc1ccccc1NC(=O)CC(=O)N/N=C/c1ccc(N(CCC#N)S(=O)(=O)c2ccccc2)cc1`: the pEC50 is below 3.74 and the negative-log IC50 (pIC50) was below 3.74.

Consider `Cn1c(=O)c(Br)c(C=O)n(CCO[N+](=O)[O-])c1=O`, for which the pEC50 was below 3.70 and the negative-log IC50 (pIC50) is 5.75.

For the compound `CCOC(=O)NC(=O)c1cn(CCN2CCN(c3ncnc4nc[nH]c34)CC2)c(=O)[nH]c1=O`, the result was inactive.

Regarding `CO/N=C1/c2sccc2[C@H](NC(=O)C(F)(F)F)[C@@H]1O`, the pEC50 was below 3.70 and the negative logarithm of the IC50 (pIC50) is below 3.70.

As to `O=C(/C=C/c1ccc(Cl)c(Cl)c1)c1ccc(F)cc1`, the pEC50 is below 5.73 and the pIC50 is below 5.73.

For `COC(=O)CN=C1NC(=S)N(Cc2ccc(OC)cc2)C12CCCC2`, the pEC50 was below 3.70 and the negative-log IC50 (pIC50) was below 3.70.

`C/C=C/CCC1CCCCN(C(=O)OC(C)(C)C)C1OCC` (stereo not drawn): the pEC50 is below 4.22 and the pIC50 was below 4.22.

`Brc1ccc(SSc2ccc(Br)cc2)cc1`: the pEC50 is below 3.70; the pIC50 was 5.04 and 5.47.

Regarding `C/C(=C/c1cc(=O)n(C)c2ccccc12)[N+](=O)[O-]`, the pEC50 was below 3.70 and the pIC50 was 6.08.

`CCOC(=O)c1nc2ccc(OC)cc2c2c1Cc1ccccc1-2`: the pEC50 is below 4.65 and the pIC50 is below 4.65.

For the compound `Cc1nc(N/N=C/c2ccccc2Cl)[nH]c(=O)c1CCO`, the pEC50 is below 4.00 and the negative logarithm of the IC50 (pIC50) was below 4.00.

Turning to `CN(/N=C/c1ccc(Cl)c(Cl)c1)C1=NCCN1`, the pEC50 is below 3.70 and the negative logarithm of the IC50 (pIC50) was 4.79.

As for `CCOC(=O)C1C(=O)c2cccc(OC)c2C2COC(=O)N12` (stereo not drawn), the pEC50 was below 3.60 and the negative-log IC50 (pIC50) was 3.64.

Take `NC(=O)C(=CNC(=S)NCc1ccccc1)C(N)=O`: the pEC50 is below 3.70 and the pIC50 is below 3.70.

Take `C#Cc1ccccc1C(=O)OC`: the pEC50 is below 3.60 and the pIC50 was below 3.60.
